Measurements as given in PubChem BioAssay (NCI).
Several values for one entry are separate records, joined by “and”; a condition that tells them apart may be missing. Equal values may be shown once.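 Grown in 96-well plates, cells were treated for 48 hours with each compound at five concentrations. Insufficient inhibition: endpoint recorded as highest concentration tested. Abbreviation: GI50, concentration required for 50% inhibition of growth. Definition used: TGI = concentration required for complete inhibition of growth.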

Tests used:
Experiment in all cases: DTP human tumour cell line panel, 48 h
[1] = test system: HCT-116 colon
[2] = test system: IGROV1 ovarian
[3] = test system: NCI-H460 lung
[4] = test system: NCI-H522 lung
[5] = test system: NCI/ADR-RES ovarian
[6] = test system: SK-MEL-5 melanoma
[7] = test system: SK-OV-3 ovarian
[8] = test system: SR leukemia
[9] = test system: T-47D breast
[10] = test system: UO-31 renal

SMILES | GI50 [1] | TGI [1] | GI50 [2] | TGI [2] | GI50 [3] | TGI [3] | GI50 [4] | TGI [4] | GI50 [5] | TGI [5] | GI50 [6] | TGI [6] | GI50 [7] | TGI [7] | GI50 [8] | TGI [8] | GI50 [9] | TGI [9] [µM] | GI50 [10] | TGI [10]
COc1ccc2nc3cc([N+](=O)[O-])ccc3c(NCCCN(CCO)CCO)c2c1 | 2.36 µM | 9.54 µM | 2.51 µM | 7.13 µM | 2.18 µM | 8.75 µM | 1.36 µM | 2.86 µM | 15.9 µM | 39.9 µM | 1.8 µM | 4.69 µM | 12.7 µM | 17.2 µM | 1.97 µM | 14.3 µM | 1.62 µM | 7.5 | 8.56 µM | 22.6 µM
Clc1ccc(C(c2ccc(Cl)cc2)N2CCNCC2)cc1 |  | 3.84 µM |  | 3.17 µM |  | 4.65 µM |  | 3.46 µM |  | 13.6 µM |  | 3.64 µM |  | > 44.3 µM |  | 4.41 µM |  | 5.25 |  | 4.4 µM
CCCCOC(=O)c1ccc(NC(=O)CCl)cc1 | 1.29 µM | 2.86 µM | 1.6 µM | 4.34 µM | 3.09 µM | 10.7 µM | 1.74 µM | 3.57 µM | 2.79 µM | 8.84 µM | 1.55 µM | 3.04 µM | 10.5 µM | 22.6 µM | 1.67 µM | 3.85 µM | 1.38 µM | 4.01 | 1.39 µM | 2.84 µM
C[n+]1c2ccccc2c(Nc2ccc(NS(=O)(=O)CCCCN=C(N)N)cc2)c2ccc(N)cc21 | 1.49 µM | > 100 µM | 2.92 µM | > 100 µM |  | 12.1 µM | 2.03 µM | 25.6 µM | > 100 µM | > 100 µM | 1.2 µM | 15.2 µM | 2.77 µM | > 100 µM | 0.138 µM | > 26.3 µM | 0.222 µM | 13.5 | 6.5 µM | > 100 µM
COc1cc(F)cc([C@@H](CO)NC(=O)[C@@H](C)N2Cc3ccc(-c4nc(NC5CCOCC5)ncc4Cl)cc3C2=O)c1 | 0.0173 µM | > 54.9 µM | 0.0409 µM | 35.6 µM | 6.14 µM | > 100 µM | 13.4 µM | 60.4 µM | 16.3 µM | 78.2 µM | 0.405 µM | 14.8 µM | 3.25 µM | > 100 µM | 10.8 µM | 70.7 µM | 5.03 µM | 33 | 0.406 µM | 33.6 µM
NC(=S)N/N=C/c1ccc(O)cn1 | 13.7 µM and 6.53 µM | > 1500 µM and 369 µM | 50.9 µM and 27.1 µM | 916 µM and 827 µM | 29.1 µM | 595 µM | 10.2 µM and 1.41 µM and 7 µM |  | 3.09 µM |  | 11.3 µM and 8.06 µM |  | 128 µM and 25.8 µM | 953 µM and 613 µM |  | > 323 µM |  | > 451 | 25.5 µM and 7.24 µM | 66.7 µM and 42 µM and 136 µM
COc1ccc(-c2nn(-c3cccc(Cl)c3)cc2-c2c(C#N)c(=O)n3[nH]c(-c4ccc(C)cc4)nc3c2C#N)cc1 | 1.24 µM | 6 µM | 3.51 µM | 11.3 µM | 1.85 µM | 8.31 µM | 1.45 µM | 4.89 µM | 9.43 µM | 37.5 µM | 6.06 µM | 14 µM | 3.3 µM | 9.54 µM | 1.43 µM | 10.1 µM | 5.15 µM | 12.1 | 3.39 µM | 11.2 µM
O=C(O)c1ccc2c3c(ncnc13)-c1ccccc1C2=O | 27.2 µM | > 100 µM | 43.9 µM | > 100 µM | 2.43 µM | 6.02 µM | 13.8 µM | > 100 µM | 42.8 µM | > 100 µM | 1.34 µM | 2.65 µM | > 89.5 µM | > 100 µM | 35.7 µM | > 100 µM | > 100 µM | > 100 | 15.8 µM | > 100 µM
c1ccc(Nn2c(CCCCCCCCc3nnc(COc4ccccc4)n3Nc3ccccc3)nnc2COc2ccccc2)cc1 | 51.7 µM | > 300 µM | 17.7 µM and 46 µM | > 300 µM | 6.34 µM and 12.9 µM | > 300 µM |  | > 91.8 µM | 11.5 µM and 20.6 µM | > 300 µM | 6.41 µM and 50 µM | > 300 µM | > 300 µM | > 300 µM | 8.48 µM and 7.33 µM | > 300 µM | 12.3 µM and 7.31 µM | > 300 | 5.27 µM and 8.49 µM | > 300 µM
O=c1oc(-c2ccccc2)cc2cccc(O)c12 | 19.8 µM | 45.2 µM | 23 µM | > 100 µM | 29 µM | > 100 µM | 49.9 µM | > 100 µM | 33.3 µM | > 74.3 µM | 24 µM | > 100 µM | 26.8 µM | 68.6 µM | 43.5 µM | > 100 µM | 13.6 µM | > 100 | 72 µM | > 100 µM
CCOC(=O)NC1=C(N2CC2)C(=O)C(NC(=O)OCC)=C(N2CC2)C1=O | 4.59 µM and 4.37 µM | 15.1 µM and 9.91 µM and 11.8 µM | 8.21 µM and 7.5 µM | 25 µM and 18.1 µM and 30.6 µM | 0.505 µM and 0.721 µM | 20 µM and 16.2 µM and 31 µM | 5.95 µM and 4.17 µM | 17.5 µM and 9.09 µM and 9.12 µM | 8.44 µM | 25 µM and 16.8 µM | 4.7 µM | 15 µM and 9.97 µM and 7.95 µM | 9.93 µM and 8.49 µM | 25 µM and 20.3 µM and 31.8 µM | 0.389 µM | 7.9 µM and 60.6 µM |  | 16.8 | 11.1 µM and 4 µM | 25 µM and 21.7 µM and 22.4 µM
CSc1n(Cc2ccc3ccccc3c2)c(C)c[n+]1Cc1ccc2ccccc2c1 | 0.615 µM | 1.86 µM | 0.49 µM | 1.8 µM | 0.802 µM | 2.18 µM | 0.311 µM | 1.3 µM | 12.8 µM | 31.3 µM | 0.389 µM | 1.32 µM | 1.18 µM | 2.61 µM | 0.363 µM | 2.52 µM | 0.408 µM | 2.1 | 1.6 µM | 3.84 µM
O=C(NCCN1CCC(O)CC1)c1cc2c(o1)C(=O)c1ccccc1C2=O | 0.301 µM | 1.05 µM | 0.3 µM | 1.02 µM | 0.192 µM | 0.39 µM | 0.284 µM | 1.09 µM | 1.52 µM | 5.24 µM | 0.141 µM | 0.275 µM | 1.51 µM | 2.92 µM | 0.396 µM | 20.5 µM | 0.376 µM | 1.85 | 0.666 µM | 1.84 µM
